Square brackets hold non-standard residues; d marks the D form. Peptide text beside a SMILES is read from it. * marks the point of attachment. X1 = CCCCCCCCCCCCCCCCCCCCCCCCCCCC(=O)*; Orn = NCCC[C@H](N)C(=O)O

Data set [1] can be described thus: Solubility of lipopeptide detergents in water. Format: physicochemical. The procedure: The LPDs with chain lengths from 10 to 16 carbons are soluble in water to over 10 mM, and the LPDs with chain lengths from 18 to 24 carbons are soluble to over 1 mM. […] As a control, a reference molecule known as C-0 is made with the same peptide scaffold, but without the coupled lipids. […] Every batch of peptide is analyzed by MS to confirm the synthesis.

Another data set concerns the target T1, bacteriorhodopsin (Halobacterium salinarum, UniProt P02945).
T1 construct: Purple membranes were isolated by overlaying 12.5 mL of the membrane suspension on a 40%/60% (10 mL/7.5 mL) sucrose gradient; made in house; host or cells: Halobacterium salinarium (strain a gift of J. Lanyi); protein isolated from purple membranes of the natural producer
T1 sequence (P02945 14-261 limits assumed): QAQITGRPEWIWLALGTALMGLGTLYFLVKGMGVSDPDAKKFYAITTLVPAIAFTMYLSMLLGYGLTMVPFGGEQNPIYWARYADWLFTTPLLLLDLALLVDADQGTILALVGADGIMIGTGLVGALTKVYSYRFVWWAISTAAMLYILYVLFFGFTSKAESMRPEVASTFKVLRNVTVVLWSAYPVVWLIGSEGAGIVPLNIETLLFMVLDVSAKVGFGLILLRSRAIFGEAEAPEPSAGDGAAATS
The data set can be described thus: Stabilization of detergent-solubilized bacteriorhodopsin after exchange of OG for LPD; absorption spectrum of supernatant during storage. More on the design: species or system Halobacterium salinarium. As to conditions: stored in the dark at room temperature, spectra at 1 to 32 days, supernatant after 100,000xg.

The conditions of data set [2]: cited from earlier work.

Method for bacteriorhodopsin: The purple membranes were homogenized in 25 mM sodium phosphate, pH 6.9 with 1.5% OG (Anatrace, Maumee, Ohio) and mixed for 36 hours in the dark. After adjusting the pH to 5.5 with 0.1 N HCl, the solution was spun at 200,000×g for 45 minutes to obtain the soluble bacterioprhodopsin (BR) in the supernatant. The protein was concentrated to 5 mg/mL by ultrafiltration with an Amicon PM 10 membrane. BR was further purified from this solution by chromatography on a Superdex 75 gel filtration column in 25 mM sodium phosphate, pH 5.5, 1.2% (w/v) OG, at a flow rate of 1 mL/min.
Typically, the initial concentration of OG in the purified BR sample was approximately 50 mM, which is roughly twice the critical micelle concentration for this detergent.

Consider `CCCCCCCCCCCCCCCCCCCCCCCCCCCC(=O)NCCC[C@H](NC(=O)[C@H](C)NC(=O)[C@H](CCCCN)NC(=O)[C@H](C)NC(=O)[C@H](C)NC(=O)[C@H](CCCCN)NC(=O)[C@H](CCC(=O)O)NC(=O)[C@H](C)NC(=O)[C@H](C)NC(=O)[C@H](CCC(=O)O)NC(=O)[C@H](C)NC(=O)[C@H](C)NC(=O)[C@H](Cc1ccc(O)cc1)NC(=O)[C@H](CCCCN)NC(=O)[C@H](C)NC(=O)[C@H](C)NC(=O)[C@H](CCCCN)NC(=O)[C@H](CCC(=O)O)NC(=O)[C@H](C)NC(=O)[C@H](C)NC(=O)[C@H](CCC(=O)O)NC(=O)[C@H](C)NC(=O)[C@H](CCCNC(=O)CCCCCCCCCCCCCCCCCCCCCCCCCCC)NC(=O)[C@H](C)NC(C)=O)C(=O)N[C@@H](C)C(N)=O` [LPD-28] (Ac-A[Orn](X1)AEAAEKAAKYAAEAAEKAAKA[Orn](X1)A-NH2), for which the “solubility in water (in words)” value in data set [1] was “poorly soluble in water”.

For `CCCCCCCCO[C@@H]1O[C@H](CO)[C@@H](O)[C@H](O)[C@H]1O` [OG, octyl β-D-glucopyranoside], the entries for the “preservation of the native bacteriorhodopsin absorption spectrum over storage time” value on bacteriorhodopsin and on bacteriorhodopsin (listed as octyl glucoside (OG)) were “lost the characteristic spectum for native bacteriorhodopsin within a few days” and “loss of the native conformation of the protein over time”, respectively. Besides, the solubility in water result in data set [2] is listed as “greater than 20 % (w/v)”.

Take `CCCCCCCCCCO[C@@H]1O[C@H](CO)[C@@H](O)[C@H](O)[C@H]1O` [decyl glucoside]: the solubility in water in data set [2] is 0.1 % (w/v).

With `CCCCCCCCCCCCO[C@@H]1O[C@H](CO)[C@@H](O)[C@H](O)[C@H]1O` [dodecyl glucoside], the solubility in water in data set [2] is 0.008 % (w/v).
